Measurements published in patent US10167262B2, “Herbicidal substituted 3-arylpyrazoles” (FMC CORPORATION, priority 2014, dated 2019).
Where two headings read alike, the source gives them in different places.

How the values were obtained:
Assay type in all cases: in vivo
[1] = test system: blackgrass (Alopecurus myosuroides); experiment: Test C pre-/postemergence greenhouse test, plant response rating 0-100; details: Alopecurus myosuroides; for pest or weed control at 62 g/ha: 62 g ai/ha; for pest or weed control at 125 g/ha: 125 g ai/ha; for pest or weed control at 250 g/ha: 250 g ai/ha; for pest or weed control at 500 g/ha: 500 g ai/ha
How it was run: (§1)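 Scores run from 0, no effect, to 100, complete control, assigned by eye after treated plants and controls spent 13 to 15 days in a greenhouse. Soil-applied treatment went onto freshly sown seed in loam and sand; foliar treatment hit seedlings at the 1- to 4-leaf stage.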

[2] = test system: galium (catchweed bedstraw, Galium aparine); experiment: as above; details: Galium; for pest or weed control at 62 g/ha: 62 g ai/ha; for pest or weed control at 125 g/ha: 125 g ai/ha; for pest or weed control at 250 g/ha: 250 g ai/ha; for pest or weed control at 500 g/ha: 500 g ai/ha
How it was run: as §1

[3] = test system: giant foxtail (Setaria faberii); experiment: as above; details: Setaria faberi; for pest or weed control at 62 g/ha: 62 g ai/ha; for pest or weed control at 125 g/ha: 125 g ai/ha; for pest or weed control at 250 g/ha: 250 g ai/ha; for pest or weed control at 500 g/ha: 500 g ai/ha
How it was run: as §1

[4] = test system: johnsongrass (Sorghum halepense); experiment: as above; details: Sorghum halepense; for pest or weed control at 62 g/ha: 62 g ai/ha; for pest or weed control at 125 g/ha: 125 g ai/ha; for pest or weed control at 250 g/ha: 250 g ai/ha; for pest or weed control at 500 g/ha: 500 g ai/ha
How it was run: as §1

[5] = test system: lambsquarters (Chenopodium album); experiment: as above; details: Chenopodium album; for pest or weed control at 62 g/ha: 62 g ai/ha; for pest or weed control at 125 g/ha: 125 g ai/ha; for pest or weed control at 250 g/ha: 250 g ai/ha; for pest or weed control at 500 g/ha: 500 g ai/ha
How it was run: as §1

[6] = test system: large (Lg) crabgrass (Digitaria sanguinalis); experiment: as above; details: Digitaria sanguinalis; for pest or weed control at 62 g/ha: 62 g ai/ha; for pest or weed control at 125 g/ha: 125 g ai/ha; for pest or weed control at 250 g/ha: 250 g ai/ha; for pest or weed control at 500 g/ha: 500 g ai/ha
How it was run: as §1

[7] = test system: morningglory (Ipomoea coccinea); experiment: as above; details: Ipomoea; for pest or weed control at 62 g/ha: 62 g ai/ha; for pest or weed control at 125 g/ha: 125 g ai/ha; for pest or weed control at 250 g/ha: 250 g ai/ha; for pest or weed control at 500 g/ha: 500 g ai/ha
How it was run: as §1

[8] = test system: soybean (Glycine max); experiment: as above; details: Glycine max; for plant injury at 62 g/ha: 62 g ai/ha; for plant injury at 125 g/ha: 125 g ai/ha; for plant injury at 250 g/ha: 250 g ai/ha; for plant injury at 500 g/ha: 500 g ai/ha
How it was run: as §1

[9] = test system: winter wheat (Triticum aestivum); experiment: as above; details: Triticum aestivum; for plant injury at 62 g/ha: 62 g ai/ha; for plant injury at 125 g/ha: 125 g ai/ha; for plant injury at 250 g/ha: 250 g ai/ha; for plant injury at 500 g/ha: 500 g ai/ha
How it was run: as §1

[10] = test system: yellow nutsedge (Cyperus esculentus); experiment: as above; details: Cyperus; for pest or weed control at 62 g/ha: 62 g ai/ha; for pest or weed control at 125 g/ha: 125 g ai/ha; for pest or weed control at 250 g/ha: 250 g ai/ha; for pest or weed control at 500 g/ha: 500 g ai/ha
How it was run: as §1

[11] = test system: chickweed (common chickweed, Stellaria media); experiment: Test C postemergence greenhouse test, plant response rating 0-100; details: Stellaria media, post-emergence
How it was run: (§2)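 Formulated compounds applied postemergence; plants 1- to 4-leaf stage. Evaluated visually vs. untreated controls after roughly two weeks (13–15 d) under greenhouse conditions; 100 denotes complete control.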

[12] = test system: kochia (Kochia scoparia); experiment: as above; details: Bassia scoparia, post-emergence
How it was run: as §2

[13] = test system: wild oat (Avena fatua); experiment: as above; details: Avena fatua, post-emergence
How it was run: as §2

[14] = post-emergence, Postemergence, scale 0 to 100
[15] = pre-emergence, Preemergence, read-out: Plant response rating, Blackgrass
[16] = post-emergence, Postemergence, read-out: Plant response rating (0 to 100), Galium
[17] = pre-emergence, Preemergence, read-out: Plant response rating, Galium
[18] = post-emergence, Postemergence, read-out: Plant response rating (0 to 100), Foxtail, Giant
[19] = pre-emergence, Preemergence, read-out: Plant response rating, Foxtail, Giant
[20] = post-emergence, Postemergence, read-out: Plant response rating (0 to 100), Johnsongrass
[21] = pre-emergence, Preemergence, read-out: Plant response rating, Johnsongrass
[22] = post-emergence, Postemergence, read-out: Plant response rating (0 to 100), Lambsquarters
[23] = pre-emergence, Preemergence, read-out: Plant response rating, Lambsquarters
[24] = post-emergence, Postemergence, read-out: Plant response rating (0 to 100), Crabgrass, Large
[25] = pre-emergence, Preemergence, read-out: Plant response rating, Crabgrass, Large
[26] = post-emergence, Postemergence, read-out: Plant response rating (0 to 100), Morningglory
[27] = pre-emergence, Preemergence, read-out: Plant response rating, Morningglory
[28] = post-emergence, Postemergence, read-out: Plant response rating (0 to 100), Soybean
[29] = pre-emergence, Preemergence, read-out: Plant response rating, Soybean
[30] = post-emergence, Postemergence, read-out: Plant response rating (0 to 100), Wheat
[31] = pre-emergence, Preemergence, read-out: Plant response rating, Wheat
[32] = post-emergence, Postemergence, read-out: Plant response rating (0 to 100), Nutsedge, Yellow
[33] = pre-emergence, Preemergence, read-out: Plant response rating, Nutsedge, Yellow

COCC(=O)n1cc(C(=O)c2ccccc2)c(-c2cc(Cl)cc(Cl)c2)n1 [Compound 16, 1-[4-benzoyl-3-(3,5-dichlorophenyl)-1H-pyrazol-1-yl]-2-methoxyethanone]
70%: pest or weed control at 62 g/ha [5, 22]
5%: pest or weed control at 500 g/ha [10, 14]
20%: pest or weed control at 125 g/ha [2, 16] | pest or weed control at 250 g/ha [2, 14]
85%: pest or weed control at 125 g/ha ([12]; 125 g ai/ha)
0%: pest or weed control at 62 g/ha ([1]; post-emergence, Postemergence, read-out: Plant response rating (0 to 100), Blackgrass) | pest or weed control at 125 g/ha ([1]; post-emergence, Postemergence, scale 0 to 100, read-out: Plant response rating, Blackgrass) | pest or weed control at 250 g/ha [1, 14] | pest or weed control at 500 g/ha [1, 14] | pest or weed control at 62 g/ha [1, 15] | pest or weed control at 125 g/ha [1, 15] | pest or weed control at 250 g/ha ([1]; pre-emergence, Preemergence) | pest or weed control at 500 g/ha ([1]; pre-emergence, Preemergence) | pest or weed control at 62 g/ha [2, 16] | pest or weed control at 62 g/ha [2, 17] | pest or weed control at 125 g/ha [2, 17] | pest or weed control at 250 g/ha ([2]; pre-emergence, Preemergence) | pest or weed control at 500 g/ha ([2]; pre-emergence, Preemergence) | pest or weed control at 62 g/ha [3, 18] | pest or weed control at 125 g/ha [3, 18] | pest or weed control at 250 g/ha [3, 14] | pest or weed control at 62 g/ha [3, 19] | pest or weed control at 125 g/ha [3, 19] | pest or weed control at 250 g/ha ([3]; pre-emergence, Preemergence) | pest or weed control at 500 g/ha ([3]; pre-emergence, Preemergence) | pest or weed control at 62 g/ha [4, 20] | pest or weed control at 125 g/ha [4, 20] | pest or weed control at 250 g/ha [4, 14] | pest or weed control at 500 g/ha [4, 14] | pest or weed control at 62 g/ha [4, 21] | pest or weed control at 125 g/ha [4, 21] | pest or weed control at 250 g/ha ([4]; pre-emergence, Preemergence) | pest or weed control at 500 g/ha ([4]; pre-emergence, Preemergence) | pest or weed control at 62 g/ha [6, 24] | pest or weed control at 125 g/ha [6, 24] | pest or weed control at 250 g/ha [6, 14] | pest or weed control at 500 g/ha [6, 14] | pest or weed control at 62 g/ha [6, 25] | pest or weed control at 125 g/ha [6, 25] | pest or weed control at 250 g/ha ([6]; pre-emergence, Preemergence) | pest or weed control at 500 g/ha ([6]; pre-emergence, Preemergence) | pest or weed control at 62 g/ha [7, 26] | pest or weed control at 125 g/ha [7, 26] | pest or weed control at 250 g/ha [7, 14] | pest or weed control at 500 g/ha [7, 14] | pest or weed control at 62 g/ha [7, 27] | pest or weed control at 125 g/ha [7, 27] | pest or weed control at 250 g/ha ([7]; pre-emergence, Preemergence) | pest or weed control at 500 g/ha ([7]; pre-emergence, Preemergence) | plant injury at 62 g/ha [8, 28] | plant injury at 125 g/ha [8, 28] | plant injury at 250 g/ha [8, 14] | plant injury at 500 g/ha [8, 14] | plant injury at 62 g/ha [8, 29] | plant injury at 125 g/ha [8, 29] | plant injury at 250 g/ha ([8]; pre-emergence, Preemergence) | plant injury at 500 g/ha ([8]; pre-emergence, Preemergence) | plant injury at 62 g/ha [9, 30] | plant injury at 125 g/ha [9, 30] | plant injury at 250 g/ha [9, 14] | plant injury at 500 g/ha [9, 14] | plant injury at 62 g/ha [9, 31] | plant injury at 125 g/ha [9, 31] | plant injury at 250 g/ha ([9]; pre-emergence, Preemergence) | plant injury at 500 g/ha ([9]; pre-emergence, Preemergence) | pest or weed control at 62 g/ha [10, 32] | pest or weed control at 125 g/ha [10, 32] | pest or weed control at 250 g/ha [10, 14] | pest or weed control at 62 g/ha [10, 33] | pest or weed control at 125 g/ha [10, 33] | pest or weed control at 250 g/ha ([10]; pre-emergence, Preemergence) | pest or weed control at 500 g/ha ([10]; pre-emergence, Preemergence) | pest or weed control at 62 g/ha ([13]; 62 g ai/ha) | pest or weed control at 125 g/ha ([13]; 125 g ai/ha) | pest or weed control at 250 g/ha ([13]; 250 g ai/ha, scale 0 to 100) | pest or weed control at 500 g/ha ([13]; 500 g ai/ha, scale 0 to 100)
90%: pest or weed control at 250 g/ha ([12]; 250 g ai/ha, scale 0 to 100) | pest or weed control at 500 g/ha ([12]; 500 g ai/ha, scale 0 to 100)
100%: pest or weed control at 62 g/ha [5, 23] | pest or weed control at 125 g/ha [5, 23] | pest or weed control at 250 g/ha ([5]; pre-emergence, Preemergence) | pest or weed control at 500 g/ha ([5]; pre-emergence, Preemergence) | pest or weed control at 125 g/ha ([11]; 125 g ai/ha) | pest or weed control at 250 g/ha ([11]; 250 g ai/ha, scale 0 to 100) | pest or weed control at 500 g/ha ([11]; 500 g ai/ha, scale 0 to 100)
75%: pest or weed control at 125 g/ha [5, 22] | pest or weed control at 250 g/ha [5, 14] | pest or weed control at 500 g/ha [5, 14]
50%: pest or weed control at 500 g/ha [2, 14]
10%: pest or weed control at 500 g/ha [3, 14]
80%: pest or weed control at 62 g/ha ([12]; 62 g ai/ha)
95%: pest or weed control at 62 g/ha ([11]; 62 g ai/ha)
